These are literature values, as cited in patent US20070015771A1, “Lonidamine analogs” (Threshold pharmaceuticals, Inc., priority 2004, published 2007).

One series has as its system advanced breast cancer. Conditions: 28 evaluable patients, daily divided oral dose of 600 mg; cited from earlier work.
Another series relates to HIF-1-alpha. Particulars: cells cultured under hypoxia, cited from earlier work.
For series [1], the system named is cell lines derived from human prostate cells. Particulars: LNCaP vs PC3 cells; cited from earlier work.
In series [2] the test system is primary cultures of human prostate epithelial cells. Particulars: epithelial vs stromal cells; cited from earlier work.

Where two headings read alike, the source gives them in different places.

For `O=C(O)c1nn(Cc2ccc(Cl)cc2Cl)c2ccccc12` [lonidamine, 1-(2,4-dichlorobenzyl)-1H-indazole-3-carboxylic acid], in the series with advanced breast cancer, the minor response is reported as 11% and the partial response was 11%. For the same compound, the “reduction of HIF-1-alpha expression/accumulation (nuclear fraction)” value in the series with HIF-1-alpha (200 micromolar) was “about 2 fold”. The “reduction of HIF-1-alpha expression/accumulation (nuclear fraction)” value in the series with HIF-1-alpha (higher lonidamine concentrations) is “more than 5 fold”. For the same compound, the “apoptosis in cell lines derived from human prostate cells” value in series [1] is “induces apoptosis”. For the same compound, in series [2], the “apoptosis in primary cultures of human prostate epithelial cells” value is recorded as “induces apoptosis”.
